T1: Pichia stipitis xylose reductase (Ps-XR) (Scheffersomyces stipitis, UniProt P31867)
T1 construct: gene XYL1; XYL1 gene product overproduced in S. cerevisiae TMB3260 (PGK1p-XYL1); purified by Red-Sepharose and gel filtration; no tag mentioned
T1 sequence (P31867 1-318): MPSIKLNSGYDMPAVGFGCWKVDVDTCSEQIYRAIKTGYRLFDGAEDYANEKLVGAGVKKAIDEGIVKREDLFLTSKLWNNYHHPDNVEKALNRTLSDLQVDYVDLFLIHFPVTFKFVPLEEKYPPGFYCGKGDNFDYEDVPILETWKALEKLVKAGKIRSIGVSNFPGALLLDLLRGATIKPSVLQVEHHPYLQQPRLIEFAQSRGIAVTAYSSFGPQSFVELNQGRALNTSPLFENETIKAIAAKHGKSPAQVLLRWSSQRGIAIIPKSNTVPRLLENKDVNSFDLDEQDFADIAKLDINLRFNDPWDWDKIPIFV

B1: Pichia stipitis xylose reductase (Ps-XR) (Scheffersomyces stipitis CBS 6054) (protein)
chain: T1 sequence (P31867 1-318)
notes: XYL1 gene product overproduced in S. cerevisiae TMB3260 (PGK1p-XYL1); purified by Red-Sepharose and gel filtration; no tag mentioned

Experiments:
[1] = biological target: T1, Pichia stipitis xylose reductase (Ps-XR); assay: NADPH oxidation at […] nm, non-linear regression, substrate-inhibition model with Hill coefficient; type: biochemical; settings: NADPH as cofactor, Hill coefficient n = 3.51, 100 mM phosphate pH 7.0, 30 °C, unit of Ki not printed (Km in mM)
purified protein = substrate: O=Cc1ccc(CO)o1; assay: purified protein; type: biochemical, Scheffersomyces stipitis; settings: NADPH as cofactor, substrate-inhibition model, 100 mM phosphate pH 7.0, 30 °C

Molecule | Ki [1] | Km (purified protein) [mM]
O=Cc1ccc(CO)o1 [HMF] | 95.0 | 
B1 |  | 40

Source: PMC2464581, “Pichia stipitis xylose reductase helps detoxifying lignocellulosic hydrolysate by reducing 5-hydroxymethyl-furfural (HMF)” (Biotechnology for Biofuels, 2008)
